From US6979676B2 (priority 2002, dated 2005)
Read-outs that look alike come from different tables or passages of the source.

What was measured:
[1] = Stability of Formula I in various PG/buffer solutions (HPLC purity, initial point vs 80° C./8 days); type: physicochemical; settings: initial point and 80° C./8 days
[2] = Solubility of Formula I in various vehicles; type: physicochemical; settings: thermodynamic from solid, room temperature after 1 day
[3] = Stability of Formula I in PG/water or PG/buffers (HPLC purity, initial point vs 80° C./4 days); type: physicochemical; settings: 5 mg/mL, initial point and 80° C./4 days
[4] = physchem
[5] = Degradation rate of Formula I in various pH conditions (T90 at 80° C.); type: physicochemical
[6] = 50% PG/75 mM citrate buffer (pH = 4)

In the case of `O=C1c2c(c3c4ccc(O)cc4n(C4OC(CO)C(O)C(O)C4O)c3c3[nH]c4cc(O)ccc4c23)C(=O)N1NC(CO)CO` [Formula I, 12,13-dihydro-2,10-dihydroxy-6-N-(1-hydroxymethyl-2-hydroxyethylamino)-13-(β-D-glucopyranosyl)-5H-indolo[2,3-α]pyrrolo[3,4-c]carbazole-5,7(6H)-dione], the “Stability of Formula I (purity by HPLC)” value ([1]; 50% PG/50 mM citrate buffer (pH = 4)) is reported as −5.50%, the “Stability of Formula I (purity by HPLC)” value ([1]; 50% PG/50 mM tartrate buffer (pH = 4)) is reported as −6.12% and the “Stability of Formula I (purity by HPLC)” value [1, 6] is reported as −6.49%. For the same compound, the “Stability of Formula I (purity by HPLC)” value ([1]; 50% PG/water) was −30.68%, the solubility at 1 day ([2]; aqueous buffer, 50 mM citrate buffer (pH = 3)) was 0.92 mg/mL and the solubility at 1 day ([2]; aqueous buffer, 50 mM citrate buffer (pH = 4)) was 0.81 mg/mL. It also gave a solubility at 1 day ([2]; aqueous buffer, 50 mM citrate buffer (pH = 5)) of 0.72 mg/mL, a solubility at 1 day ([2]; aqueous buffer, 50 mM citrate buffer (pH = 6)) of 0.72 mg/mL and a solubility at 1 day ([2]; aqueous buffer, 50 mM citrate buffer (pH = 7)) of 0.67 mg/mL. The solubility at 1 day ([2]; aqueous with cosolvent or surfactant or cyclodextrin, 25% PEG 400/water (w/v)) was 16 mg/mL, the solubility at 1 day ([2]; aqueous with cosolvent or surfactant or cyclodextrin, 25% PG/water (w/v)) was 4 mg/mL and the solubility at 1 day ([2]; aqueous with cosolvent or surfactant or cyclodextrin, 40% PG/water (w/v)) was 12 mg/mL. For the same compound, the solubility at 1 day ([2]; aqueous with cosolvent or surfactant or cyclodextrin, 50% PEG 400/water (w/v)) was 25 mg/mL, the solubility at 1 day ([2]; aqueous with cosolvent or surfactant or cyclodextrin, 50% PG/50 mM citrate buffer (pH = 3)) was 24 mg/mL and the solubility at 1 day ([2]; aqueous with cosolvent or surfactant or cyclodextrin, 50% PG/50 mM citrate buffer (pH = 4)) was 25 mg/mL. For the same compound, the solubility at 1 day ([2]; aqueous with cosolvent or surfactant or cyclodextrin, 50% PG/50 mM citrate buffer (pH = 5)) was 26 mg/mL, the solubility at 1 day ([2]; aqueous with cosolvent or surfactant or cyclodextrin, 50% PG/50 mM citrate buffer (pH = 6)) was 27 mg/mL and the solubility at 1 day ([2]; aqueous with cosolvent or surfactant or cyclodextrin, 50% PG/50 mM citrate buffer (pH = 7)) was 27 mg/mL. The solubility at 1 day ([2]; aqueous with cosolvent or surfactant or cyclodextrin, 50% PG/water (w/v)) was 24 mg/mL, the solubility at 1 day ([2]; aqueous with cosolvent or surfactant or cyclodextrin, 75% PEG 400/water (w/v)) was 24 mg/mL and the solubility at 1 day ([2]; aqueous with cosolvent or surfactant or cyclodextrin, 75% PG/water (w/v)) was 45 mg/mL. The solubility at 1 day ([2]; organic solvent or mixture, 100% PEG 400) was less than 0.67 mg/mL, the solubility at 1 day ([2]; organic solvent or mixture, 100% PG) was 1.2 mg/mL and the solubility at 1 day ([2]; saline or isotonic, 5% glucose/water) was 0.6 mg/mL. For the same compound, the solubility at 1 day ([2]; water) was 0.62 mg/mL, the “Stability of Formula I (purity by HPLC)” value (1 month, 0.15 mg/mL) was −0.68% and the “Stability of Formula I (purity by HPLC)” value (50% PEG 400/water, 10 mg/mL, initial point and 40° C./1 month) was −2.9%. The “Stability of Formula I (purity by HPLC)” value (50% PG/water, 10 mg/mL, initial point and 40° C./1 month) was −0.03%, the “Stability of Formula I (purity by HPLC)” value ([3]; 50% PG/75 mM citrate buffer (pH = 3)) was −2.4% and the “Stability of Formula I (purity by HPLC)” value [3, 6] was −2.2%. For the same compound, the “Stability of Formula I (purity by HPLC)” value ([3]; 50% PG/75 mM citrate buffer (pH = 5)) was −2.9%, the “Stability of Formula I (purity by HPLC)” value ([3]; 50% PG/water) was −9.3% and the solubility ([4]; aqueous with cosolvent or surfactant or cyclodextrin) was 10 mg/mL. For the same compound, the solubility ([4]; saline or isotonic) was 0.15 mg/mL, the “T90 (time required to degrade Formula I to 90% of the initial concentration)” value ([5]; pH 2) was 0.9 days and the “T90 (time required to degrade Formula I to 90% of the initial concentration)” value ([5]; pH 3, extrapolated data) was 19 days. For the same compound, the “T90 (time required to degrade Formula I to 90% of the initial concentration)” value ([5]; pH 4, extrapolated data) was 89 days, the “T90 (time required to degrade Formula I to 90% of the initial concentration)” value ([5]; pH 5, extrapolated data) was 7.8 days and the “T90 (time required to degrade Formula I to 90% of the initial concentration)” value ([5]; pH 6) was 2.3 days. The “T90 (time required to degrade Formula I to 90% of the initial concentration)” value ([5]; pH 7) was 0.233 days, the “T90 (time required to degrade Formula I to 90% of the initial concentration)” value ([5]; pH 8) was 0.0194 days and the “T90 (time required to degrade Formula I to 90% of the initial concentration)” value ([5]; pH 9) was 0.00486 days. For the same compound, the “T90 (time required to degrade Formula I to 90% of the initial concentration)” value ([5]; pH 10) was 0.000833 days.
